How the values were obtained:
dog [1] = details: Chronic toxicity, beagle, Oral, Capsule, dose end: 52 week, group: systemic
mouse [2] = details: Carcinogenicity, cd1, Oral, Feed, dose end: 80 week, group: systemic
rabbit [3] = details: Prenatal developmental toxicity study, other, Oral, Gavage/Intubation, dose end: 19 GD
rat [4] = details: Subchronic oral toxicity in rodents, fischer, Feed, dose end: 13 week
mouse [5] = details: Carcinogenicity, b6c3f1, Oral, Feed, dose end: 105 week, group: systemic
mouse [6] = details: Subchronic oral toxicity in rodents, b6c3f1, Feed, dose end: 13 week, group: systemic
mouse [7] = details: Combined chronic toxicity/carcinogenicity; cd1; Oral; [Not Specified]; dose end: 18 month; group: systemic; systemic / pathology microscopic / lung / adenoma + systemic / pathology microscopic / lung / carcinoma
dog [8] = details: Subchronic oral toxicity in nonrodent, beagle, Capsule, dose end: 91 day, group: systemic
rat [9] = details: Multigenerational reproductive toxicity study, sprague dawley, Oral, Feed, dose end: 2 generation
rat [10] = details: Prenatal developmental toxicity study, sprague dawley, Oral, Gavage/Intubation, dose end: 15 GD
rat [11] = details: Chronic toxicity; other; Oral; Feed; dose end: 24 month; group: systemic; systemic / organ weight / testes / nos + systemic / pathology gross / testes / reduced size + systemic / pathology microscopic / testes / …
rat [12] = details: Subchronic oral toxicity in rodents, sprague dawley, Feed, dose end: 91 day, group: systemic
rabbit [13] = details: Prenatal developmental toxicity study, new zealand white, Oral, Gavage/Intubation, dose end: 18 GD
dog [14] = details: Chronic toxicity; beagle; Oral; Capsule; dose end: 26 week; group: systemic; systemic / in life observation / clinical signs / defecation (diarrhea) + systemic / in life observation / clinical signs / mucoid stools + …
[15] = systemic / in life observation / body weight / body weight gain
[16] = systemic / in life observation / body weight / body weight gain + systemic / in life observation / body weight / body weight + systemic / in…
[17] = systemic / in life observation / body weight / body weight gain + systemic / in life observation / body weight / body weight + systemic / …
[18] = group: developmental, developmental / developmental malformation / bone / [other]
[19] = group: maternal, reproductive / reproductive performance / resorptions / resorptions + systemic / in life observation / clinical signs / defecation (diarrhea…
[20] = group: developmental, developmental / offspring survival late / [other] / [other]
[21] = group: maternal, reproductive / offspring survival early / birth index / birth index
[22] = group: maternal, reproductive / reproductive performance / estrous cycle / length
[23] = group: systemic, systemic / pathology microscopic / spleen / hemosiderosis + systemic / in life observation / clinical signs / fur (altered appearance)
[24] = systemic / in life observation / body weight / body weight
[25] = systemic / in life observation / body weight / body weight + systemic / hematology / reticulocyte / reticulocyte
[26] = systemic / in life observation / body weight / body weight + systemic / in life observation / body weight / body weight gain + systemic / …
[27] = systemic / clinical chemistry / alanine aminotransferase (alt/sgpt) / alanine aminotransferase (alt/sgpt) + systemic / in life observation…
[28] = group: parental, systemic / pathology gross / testes / degeneration + systemic / pathology microscopic / testes / aspermia + systemic / pathology microscopic…
[29] = group: reproductive, reproductive / reproductive performance / fertility / fertility + reproductive / reproductive performance / mating / mating
[30] = group: developmental, developmental / developmental malformation / bone / incomplete ossification + developmental / developmental malformation / general / [other…
[31] = group: maternal, systemic / in life observation / body weight / body weight + systemic / in life observation / clinical signs / fat, discoloration + systemic…
[32] = systemic / organ weight / testes / nos + systemic / in life observation / body weight / body weight + systemic / in life observation / food …
[33] = group: developmental, systemic / in life observation / body weight / fetal weight
[34] = group: maternal, systemic / in life observation / clinical signs / anogenital staining + systemic / in life observation / clinical signs / defecation + …

COS(=O)(=O)[O-].Cn1c(-c2ccccc2)cc(-c2ccccc2)[n+]1C [Difenzoquat metilsulfate]
LOAEL (dog [1]; [15]): 30 mg/kg/day | LEL (dog [1]; [16]): 30 mg/kg/day | NEL (dog [1]; [16]): 20 mg/kg/day | NOAEL (dog [1]; [16]): 20 mg/kg/day | LEL (mouse [2]; [15]): 69.4 mg/kg/day | LOAEL (mouse [2]; [15]): 69.4 mg/kg/day | NEL (mouse [2]; [17]): 26.9 mg/kg/day | NOAEL (mouse [2]; [17]): 26.9 mg/kg/day | LEL (rabbit [3]; [18]): 250 mg/kg/day | LOAEL (rabbit [3]; [18]): 250 mg/kg/day | NEL (rabbit [3]; [18]): 100 mg/kg/day | NOAEL (rabbit [3]; [18]): 100 mg/kg/day | LEL (rabbit [3]; [19]): 250 mg/kg/day | LOAEL (rabbit [3]; [19]): 250 mg/kg/day | NEL (rabbit [3]; [19]): 100 mg/kg/day | NOAEL (rabbit [3]; [19]): 100 mg/kg/day

CC(C)(C)c1cc(O)ccc1O [tert-Butylhydroquinone]
LEL (rat [4]; [20]): 750 mg/kg/day | NEL (rat [4]; [20]): 400 mg/kg/day | LOAEL (rat [4]; [21]): 1000 mg/kg/day | NOAEL (rat [4]; [21]): 500 mg/kg/day | LEL (rat [4]; [22]): 200 mg/kg/day | NEL (rat [4]; [22]): < 200 mg/kg/day | LOAEL (rat [4]; group: systemic, systemic / in life observation / body weight / body weight + systemic / in life observation / body weight / offspring (pup) weight): 400 mg/kg/day | NOAEL (rat [4]; group: systemic, systemic / in life observation / body weight / body weight + systemic / in life observation / body weight / offspring (pup) weight + …): 200 mg/kg/day | LEL (rat [4]; [23]): 200 mg/kg/day | NEL (rat [4]; [23]): < 200 mg/kg/day | LOAEL (mouse [5]; [24]): 600 mg/kg/day | LEL (mouse [5]; [25]): 600 mg/kg/day | NEL (mouse [5]; [25]): 300 mg/kg/day | NOAEL (mouse [5]; [25]): 300 mg/kg/day | LOAEL (mouse [6]; systemic / in life observation / body weight / body weight + systemic / in life observation / body weight / body weight gain): 1950 mg/kg/day | LEL (mouse [6]; [26]): 1950 mg/kg/day | NEL (mouse [6]; [26]): 880 mg/kg/day | NOAEL (mouse [6]; [26]): 880 mg/kg/day

CC1(C)CN=C(NN=C(C=Cc2ccc(C(F)(F)F)cc2)C=Cc2ccc(C(F)(F)F)cc2)NC1 [Hydramethylnon]
LEL (mouse [7]): 4.45 mg/kg/day | LOAEL (mouse [7]): 4.45 mg/kg/day | NEL (mouse [7]): < 4.45 mg/kg/day | NOAEL (mouse [7]): < 4.45 mg/kg/day | LOAEL (dog [8]; [27]): 6 mg/kg/day | NOAEL (dog [8]; [27]): 3 mg/kg/day | LEL (dog [8]; [24]): 3 mg/kg/day | NEL (dog [8]; [24]): < 3 mg/kg/day | LEL (rat [9]; [28]): 3.32 mg/kg/day | LOAEL (rat [9]; [28]): 3.32 mg/kg/day | NEL (rat [9]; [28]): 1.66 mg/kg/day | NOAEL (rat [9]; [28]): 1.66 mg/kg/day | LEL (rat [9]; [29]): 5.07 mg/kg/day | LOAEL (rat [9]; [29]): > 5.07 mg/kg/day | NEL (rat [9]; [29]): 3.32 mg/kg/day | NOAEL (rat [9]; [29]): ≥ 5.07 mg/kg/day | LEL (rat [10]; [30]): 30 mg/kg/day | LOAEL (rat [10]; [30]): 30 mg/kg/day | NEL (rat [10]; [30]): 10 mg/kg/day | NOAEL (rat [10]; [30]): 10 mg/kg/day | LEL (rat [10]; group: maternal, systemic / in life observation / body weight / body weight + systemic / in life observation / clinical signs / fat, discoloration): 10 mg/kg/day | LOAEL (rat [10]; [31]): 30 mg/kg/day | NEL (rat [10]; [31]): 3 mg/kg/day | NOAEL (rat [10]; [31]): 10 mg/kg/day | LEL (rat [11]): 4.9 mg/kg/day | LOAEL (rat [11]): 4.9 mg/kg/day | NEL (rat [11]): 2.4 mg/kg/day | NOAEL (rat [11]): 2.4 mg/kg/day | LEL (rat [12]; systemic / organ weight / testes / nos): 2.5 mg/kg/day | NEL (rat [12]; [32]): 1.25 mg/kg/day | NOAEL (rat [12]; [32]): 2.5 mg/kg/day | LOAEL (rat [12]; systemic / organ weight / testes / nos + systemic / pathology microscopic / testes / atrophy): 5 mg/kg/day | LEL (rabbit [13]; [33]): 10 mg/kg/day | LOAEL (rabbit [13]; [33]): 10 mg/kg/day | NEL (rabbit [13]; [33]): 5 mg/kg/day | NOAEL (rabbit [13]; [33]): 5 mg/kg/day | LEL (rabbit [13]; [34]): 10 mg/kg/day | LOAEL (rabbit [13]; [34]): 10 mg/kg/day | NEL (rabbit [13]; [34]): 5 mg/kg/day | NOAEL (rabbit [13]; [34]): 5 mg/kg/day | LEL (dog [14]): 3 mg/kg/day | LOAEL (dog [14]): 3 mg/kg/day | NEL (dog [14]): 1 mg/kg/day | NOAEL (dog [14]): 1 mg/kg/day

From EPA's ToxRefDB 2
